Here are results for 33 molecules from ChEMBL document CHEMBL3351916, “Synthesis and cytotoxic evaluation of novel ester-triazole-linked triterpenoid-AZT conjugates” (Bioorg Med Chem Lett, 2014).

One assay deals with HepG2. The assay is described as follows: Cytotoxicity against human HepG2 cells. The assay is classed as functional, cell-based.
In another assay the test system is KB. The assay is described as follows: Cytotoxicity against human KB cells. The assay is classed as functional, cell-based.

Broadly, the IC50 is the concentration that gives 50% inhibition. Regarding `Cc1cn([C@H]2C[C@H](N=[N+]=[N-])[C@@H](CO)O2)c(=O)[nH]c1=O` [ZIDOVUDINE], the concentration for half-maximal inhibition (IC50) in the assay with HepG2 and in the assay with KB was over 479 µM each time.

On to `C#CCOC(=O)[C@]12CC[C@@H](C(=C)C)[C@@H]1[C@H]1CC[C@@H]3[C@@]4(C)CC[C@H](OC(=O)CC(C)CC(=O)O)C(C)(C)[C@@H]4CC[C@@]3(C)[C@]1(C)CC2` (stereo partly specified), for which the IC50 in the assay on HepG2 came to 129 µM; in the assay with KB, 12.5 µM.

In the case of `Cc1cn([C@H]2C[C@H](n3cc(COC(=O)[C@]45CCC(C)(C)C[C@H]4C4=CC[C@@H]6[C@@]7(C)CC[C@H](O)C(C)(C)[C@@H]7CC[C@@]6(C)[C@]4(C)CC5)nn3)[C@@H](CO)O2)c(=O)[nH]c1=O`, the concentration for half-maximal inhibition (IC50) in the assay with HepG2 amounted to 7.4 µM; with KB, 6.3 µM.

With `C#CCOC(=O)[C@]12CC[C@@H](C(=C)C)[C@@H]1[C@H]1CC[C@@H]3[C@@]4(C)CC[C@H](O)C(C)(C)[C@@H]4CC[C@@]3(C)[C@]1(C)CC2`, the half-inhibitory concentration (IC50) with HepG2 was 114 µM; in the assay on KB it was over 259 µM.

On to `C=C(C)[C@@H]1CC[C@]2(C(=O)O)CC[C@]3(C)[C@H](CC[C@@H]4[C@@]5(C)CC[C@@H](O)[C@@](C)(C(=O)O)[C@@H]5CC[C@]43C)[C@@H]12`, for which the IC50 in the assay on HepG2 came to 223 µM; in the assay with KB, 110 µM.

With `C=C(C)[C@@H]1CC[C@]2(C(=O)OCc3cn([C@H]4C[C@H](n5cc(C)c(=O)[nH]c5=O)O[C@@H]4CO)nn3)CC[C@]3(C)[C@H](CC[C@@H]4[C@@]5(C)CC[C@H](O)C(C)(C)[C@@H]5CC[C@]43C)[C@@H]12`, the IC50 was 7 µM in the assay with HepG2 and 5.9 µM in the assay on KB.

Consider `C#CCOC(=O)[C@]12CC[C@@H](C(=C)C)[C@@H]1[C@H]1C[C@@H](O)[C@@H]3[C@@]4(C)CCC(=O)[C@@H](C)[C@@H]4CC[C@@]3(C)[C@]1(C)CC2`, for which the figures for the IC50 with HepG2 and in the assay on KB were 39.6 µM and 21.9 µM, respectively.

Turning to `C=C(C)[C@@H]1CC[C@]2(C(=O)OCc3cn([C@H]4C[C@H](n5cc(C)c(=O)[nH]c5=O)O[C@@H]4CO)nn3)CC[C@]3(C)[C@H](CC[C@@H]4[C@@]5(C)CC[C@H](O)[C@H](C)[C@@H]5CC[C@]43C)[C@@H]12`, the IC50 with HepG2 turned out to be 7.3 µM; in the assay with KB it was 34 µM.

Take `C=C(C)[C@@H]1CC[C@]2(C(=O)OCc3cn([C@H]4C[C@H](n5cc(C)c(=O)[nH]c5=O)O[C@@H]4CO)nn3)CC[C@]3(C)[C@H](C[C@@H](O)[C@@H]4[C@@]5(C)CCC(=O)[C@@H](C)[C@@H]5CC[C@]43C)[C@@H]12`: the IC50 turned out to be 8.5 µM in the assay on HepG2 and 136 µM in the assay with KB.

For the molecule `C#CCOC(=O)[C@]12CC[C@@H](C(=C)C)[C@@H]1[C@H]1CC[C@@H]3[C@@]4(C)CC[C@H](OC(=O)CCC(=O)O)[C@H](C)[C@@H]4CC[C@@]3(C)[C@]1(C)CC2`, the IC50 in the assay with HepG2 turned out to be 11.4 µM; in the assay with KB it was 10.6 µM.

As for `C=C(C)[C@@H]1CC[C@]2(C(=O)OCc3cn([C@H]4C[C@H](n5cc(C)c(=O)[nH]c5=O)O[C@@H]4CO)nn3)CC[C@]3(C)[C@H](CC[C@@H]4[C@@]5(C)CC[C@H](OC(=O)CCCC(=O)O)C(C)(C)[C@@H]5CC[C@]43C)[C@@H]12`, the IC50 with HepG2 worked out at 18.3 µM; in the assay with KB, 20.4 µM.

Take `C#CCOC(=O)[C@]12CC[C@@H](C(=C)C)[C@@H]1[C@H]1CC[C@@H]3[C@@]4(C)CC[C@H](OCCCC(=O)O)[C@H](C)[C@@H]4CC[C@@]3(C)[C@]1(C)CC2`: the IC50 with HepG2 worked out at 27.3 µM; with KB, 9.9 µM.

As for `C=C(C)[C@@H]1CC[C@]2(C(=O)O)CC[C@]3(C)[C@H](CC[C@@H]4[C@@]5(C)CCC(=O)[C@H](C)[C@@H]5CC[C@]43C)[C@@H]12`, the IC50 was determined as 11.2 µM in the assay with HepG2 and 7.7 µM with KB.

In the case of `Cc1c2ccncc2c(C)c2c1[nH]c1ccccc12` [ELLIPTECINE], the 50% inhibitory concentration (IC50) in the assay on HepG2 and with KB was 1.2 µM throughout.

With `Cc1cn([C@H]2C[C@H](n3cc(COC(=O)[C@]45CC[C@@H](C)[C@H](C)[C@H]4C4=CC[C@@H]6[C@@]7(C)CC[C@H](O)C(C)(C)[C@@H]7CC[C@@]6(C)[C@]4(C)CC5)nn3)[C@@H](CO)O2)c(=O)[nH]c1=O`, the IC50 with HepG2 is 34 µM; in the assay on KB it was 28.5 µM.

In the case of `C=C(C)[C@@H]1CC[C@]2(C(=O)O)CC[C@]3(C)[C@H](C[C@@H](O)[C@@H]4[C@@]5(C)CCC(=O)[C@@H](C)[C@@H]5CC[C@]43C)[C@@H]12`, the values for the 50% inhibitory concentration (IC50) in the assay on HepG2 and in the assay with KB were 58 µM and 46.8 µM, respectively.

Consider `C=C(C)[C@@H]1CC[C@]2(C(=O)OCc3cn([C@H]4C[C@H](n5cc(C)c(=O)[nH]c5=O)O[C@@H]4CO)nn3)CC[C@]3(C)[C@H](CC[C@@H]4[C@@]5(C)CC[C@H](OC(=O)CCC(=O)O)C(C)(C)[C@@H]5CC[C@]43C)[C@@H]12`, for which the concentration for half-maximal inhibition (IC50) in the assay with HepG2 came to 20.6 µM; in the assay with KB it was 24.7 µM.

For the molecule `C#CCOC(=O)[C@]12CC[C@@H](C)[C@H](C)[C@H]1C1=CC[C@@H]3[C@@]4(C)CC[C@H](O)C(C)(C)[C@@H]4CC[C@@]3(C)[C@]1(C)CC2` [3BETA-HYDROXY-URS-12-EN-28-PROPARGYLATE], the IC50 in the assay with HepG2 amounted to 36.5 µM; in the assay with KB it was 38 µM.

In the case of `C#CCOC(=O)[C@]12CC[C@@H](C(=C)C)[C@@H]1[C@H]1CC[C@@H]3[C@@]4(C)CC[C@H](O)[C@H](C)[C@@H]4CC[C@@]3(C)[C@]1(C)CC2`, the concentration for half-maximal inhibition (IC50) in the assay on HepG2 amounted to 133 µM; with KB, 40 µM.

With `C#CCOC(=O)[C@]12CC[C@@H](C(=C)C)[C@@H]1[C@H]1CC[C@@H]3[C@@]4(C)CC[C@H](OC(=O)CCCC(=O)O)C(C)(C)[C@@H]4CC[C@@]3(C)[C@]1(C)CC2`, the 50% inhibitory concentration (IC50) with HepG2 was 19.9 µM; in the assay with KB, 28.7 µM.

Turning to `C#CCOC(=O)[C@]12CC[C@@H](C(=C)C)[C@@H]1[C@H]1CC(=O)[C@@H]3[C@@]4(C)CCC(=O)[C@H](C)[C@@H]4CC[C@@]3(C)[C@]1(C)CC2`, the IC50 in the assay on HepG2 worked out at 59.5 µM; with KB it was 63.9 µM.

`C=C(C)[C@@H]1CC[C@]2(C(=O)OCc3cn([C@H]4C[C@H](n5cc(C)c(=O)[nH]c5=O)O[C@@H]4CO)nn3)CC[C@]3(C)[C@H](CC(=O)[C@@H]4[C@@]5(C)CCC(=O)[C@H](C)[C@@H]5CC[C@]43C)[C@@H]12`: the IC50 with HepG2 and in the assay on KB was over 168 µM throughout.

`C=C(C)[C@@H]1CC[C@]2(C(=O)OCc3cn([C@H]4C[C@H](n5cc(C)c(=O)[nH]c5=O)O[C@@H]4CO)nn3)CC[C@]3(C)[C@H](CC[C@@H]4[C@@]5(C)CCC(=O)[C@H](C)[C@@H]5CC[C@]43C)[C@@H]12`: the half-inhibitory concentration (IC50) in the assay on HepG2 and with KB was over 172 µM throughout.

Turning to `C=C(C)[C@@H]1CC[C@]2(C(=O)OCc3cn([C@H]4C[C@H](n5cc(C)c(=O)[nH]c5=O)O[C@@H]4CO)nn3)CC[C@]3(C)[C@H](CC[C@@H]4[C@@]5(C)CC[C@H](OC(=O)CCC(=O)O)[C@H](C)[C@@H]5CC[C@]43C)[C@@H]12`, the IC50 in the assay on HepG2 turned out to be 7.8 µM; in the assay with KB, 7.3 µM.

Turning to `C#CCOC(=O)[C@]12CCC(C)(C)C[C@H]1C1=CC[C@@H]3[C@@]4(C)CC[C@H](O)C(C)(C)[C@@H]4CC[C@@]3(C)[C@]1(C)CC2` [3BETA-HYDROXY-OLEN-12-EN-28-PROPARGYLATE], the IC50 is over 259 µM in the assay on HepG2 and 38.4 µM in the assay on KB.

`C=C(C)[C@@H]1CC[C@]2(C(=O)OCc3cn([C@H]4C[C@H](n5cc(C)c(=O)[nH]c5=O)O[C@@H]4CO)nn3)CC[C@]3(C)[C@H](CC[C@@H]4[C@@]5(C)CC[C@H](OCCCC(=O)O)[C@H](C)[C@@H]5CC[C@]43C)[C@@H]12`: the IC50 in the assay with HepG2 and with KB was over 148 µM each time.

In the case of `C#CCOC(=O)[C@]12CC[C@@H](C(=C)C)[C@@H]1[C@H]1CC[C@@H]3[C@@]4(C)CC[C@H](OC(=O)CCC(=O)O)C(C)(C)[C@@H]4CC[C@@]3(C)[C@]1(C)CC2`, the values for the 50% inhibitory concentration (IC50) in the assay on HepG2 and in the assay with KB were 49.9 µM and 22.2 µM, respectively.

With `C=C(C)[C@@H]1CC[C@]2(C(=O)O)CC[C@]3(C)[C@H](C[C@@H](O)[C@@H]4[C@@]5(C)CC[C@@H](O)[C@@](C)(C(=O)O)[C@@H]5CC[C@]43C)[C@@H]12`, the IC50 in the assay on HepG2 and with KB was over 255 µM in each case.

For `CC1(C)CC[C@]2(C(=O)O)CC[C@]3(C)C(=CC[C@@H]4[C@@]5(C)CC[C@H](O)C(C)(C)[C@@H]5CC[C@]43C)[C@@H]2C1` [OLEANOLIC_ACID], the 50% inhibitory concentration (IC50) in the assay with HepG2 and in the assay with KB was over 280 µM in each case.

As to `C#CCOC(=O)[C@]12CC[C@@H](C(=C)C)[C@@H]1[C@H]1CC[C@@H]3[C@@]4(C)CCC(=O)[C@H](C)[C@@H]4CC[C@@]3(C)[C@]1(C)CC2`, the IC50 with HepG2 and with KB was over 267 µM in each case.

As for `C[C@H]1[C@H](C)CC[C@]2(C(=O)O)CC[C@]3(C)C(=CC[C@@H]4[C@@]5(C)CC[C@H](O)C(C)(C)[C@@H]5CC[C@]43C)[C@H]12` [URSOLIC ACID], the results for the IC50 in the assay on HepG2 and with KB were 42.9 µM and 31.5 µM, respectively.

Take `C=C(C)[C@@H]1CC[C@]2(C(=O)OCc3cn([C@H]4C[C@H](n5cc(C)c(=O)[nH]c5=O)O[C@@H]4CO)nn3)CC[C@]3(C)[C@H](CC[C@@H]4[C@@]5(C)CC[C@H](OC(=O)CC(C)CC(=O)O)C(C)(C)[C@@H]5CC[C@]43C)[C@@H]12` (stereo partly specified): the IC50 is 35.2 µM in the assay with HepG2 and 111 µM with KB.

`C=C(C)[C@@H]1CC[C@]2(C(=O)O)CC[C@]3(C)[C@H](CC[C@@H]4[C@@]5(C)CC[C@H](O)C(C)(C)[C@@H]5CC[C@]43C)[C@@H]12` [BETULINIC ACID]: the IC50 in the assay with HepG2 turned out to be 23.9 µM; with KB it was 27.5 µM.
